Laboratory results published in patent publication US20240335439A1, “USE OF AND METHOD FOR TELAPREVIR IN PREPARATION OF DRUG FOR TREATING AN ISCHEMIA/REPERFUSION INJURY AND CYTOPROTECTIVE DRUG” (THE THIRD XIANGYA HOSPITAL OF CENTRAL SOUTH UNIVERSITY, priority 2021, published 2024).

Columns and labels:
[1] = test system: myocardial ischemia/reperfusion injury mouse models; test: Myocardial ischemia/reperfusion injury mouse model (LAD ligation 1 h, reperfusion 24 h); assay type: in vivo, C57BL/6J mice; settings: telaprevir 60 mg/kg after 30 minutes of ischemia, 24 h reperfusion
Procedure: Experimental animals: 7-week-old male C57BL/6J mice. The experimental animals were raised for one week in an environment with a temperature of 25° C., a relative humidity of 60%, free drinking water, and timed and quantified feeding, and then administered according to the requirements of each experimental group.
Method for building a myocardial ischemia/reperfusion mouse model: After an 8-week-old male C57BL/6J mouse was anesthetized by intraperitoneal injection with 0.3% pentobarbital sodium (20 mL/kg), a trachea cannula was inserted from the mouth and secured with a pressure-sensitive adhesive. […] The chest was opened, left anterior descending (LAD) branches were ligated with 8-0 sutures, myocardial infarction can be determined when the cardiac apex turned white, and the ligation was maintained for 1 hour. […] After staining, the staining solution was removed, the heart slices were washed with PBS once, immobilized with 4% paraformaldehyde for 24 hours, and then taken out, the staining situation was observed, photos were taken, and an ischemic area and an infarct area were measured by ImageJ software. […]
Blood and myocardial tissues were collected and relevant indicators were measured: myocardial infarct area in mice was measured and serum creatine kinase activity (CK activity) was detected. […]

[2] = test system: H9c2 myocardial cells; test: Hypoxia/reoxygenation injury of H9c2 myocardial cells, LDH release; assay type: cell-based; settings: H9c2, hypoxia 8 h / reoxygenation 12 h; telaprevir 10 μM; vs Hypoxia, FIG. 4
Procedure: H9c2 myocardial cells were purchased from the Xiangya Cell Bank of Central South University.
Cell culture method: Following a conventional cell culture method, the above cells were cultured in a DMEM medium (containing 10% of fetal bovine serum). When the cells fused and grew to 80-90%, the cells were digested with a trypsin. After the cells shrank and became round and the intercellular space was obvious, the digestion was immediately terminated with a medium, the cells were dispersed and blown evenly into a single suspension state, passaged in bottles, and cultured in a 37° C. cell incubator containing 5% of CO2. […]
Cell injury was detected by an LDH release rate.
The measurement followed the operating instructions of a commercially available lactate dehydrogenase kit (Shanghai Beyotime Biotechnology Co., Ltd., China). […] The absorbance of the sample was measured at 490 nm. Calculation: LDH release rate of cells (%)=(absorbance of the drug treatment group-absorbance of the control group)/(absorbance of the maximum enzyme release group-absorbance of the control group)×100%. When the absorbance value of each group was calculated, the absorbance value of the background blank control group was first subtracted.

CCC[C@H](NC(=O)[C@@H]1[C@H]2CCC[C@H]2CN1C(=O)[C@@H](NC(=O)[C@@H](NC(=O)c1cnccn1)C1CCCCC1)C(C)(C)C)C(=O)C(=O)NC1CC1 [telaprevir]
significantly reduce: serum creatine kinase activity ([1]; ##P<0.01 vs I/R, FIG. 1B) | infarct area of myocardial tissues in mice (TTC staining, AOI/AOR) ([1]; vs I/R, FIG. 1A) | release of LDH in the myocardial cell medium (LDH release rate) [2]
